Source: ChEMBL document CHEMBL3507680, “University of Dundee, Gates Library screen for HepG2 cell viability”

Experiment: Human HepG2 cell viability assay in 384 well format
Format: toxicity, cell-based
Design: dose 125 nL, time 70.5 hour; cytotoxicity at 70.5 h: concentration not given beside the values
Conditions: HepG2 cells, read-out: Inhibition

| SMILES | cytotoxicity at 70.5 h |
| --- | --- |
| c1ncc2c(n1)CN(CC1CCCCO1)CC2 (centres undefined) | 6.75% |
| COc1ccc(-c2nnc([C@H]3CCN(CC4CC4)C3)o2)cc1 | 2.78% |
| CN1CCOC[C@H]1c1nc(-c2ccc(F)cc2F)c[nH]1 | -0.919% |
| c1cc(-c2c[nH]c([C@@H]3COCCN3C3CCOCC3)n2)ccn1 | -0.86% |
| CC1=C[C@@H](CC#N)[C@H](C(C)C)C[C@H]1CC(=O)N1CCN(C)CC1 | 13.1% |
| COCCOc1ccnc(-c2noc([C@@H]3CCCN3CC(C)(C)C)n2)c1 | 2.83% |
| c1ccc2c(Cc3nnc([C@H]4CCN(C5CCCCC5)C4)o3)c[nH]c2c1 | -0.596% |
| O=S(=O)(NC[C@H]1C[C@@H]2CCN1C[C@@H]2CN1CCCC1)c1ccc(Cl)cc1 | 17% |
| O=C(NC1CCCC1)N1C[C@H]2CN(c3ccccn3)C[C@@]2(C(=O)O)C1 | 6.72% |
| Cc1nc(N(C)C)ncc1C(=O)N(Cc1ccncc1)CC1CCCO1 (centres undefined) | -4.9% |
| CCc1nnc(CN(C)Cc2cccc(C(=O)Nc3nccs3)c2)o1 | -1.25% |
| NCC1Cc2cc(-c3nccc(N4CCC(O)CC4)n3)cc(F)c2O1 (centres undefined) | 6.33% |
| Cc1ccccc1CN1CCN(C(=O)CN2CCOC2=O)CC1 | -6.85% |
| Cc1nc(CN2CCC(c3nc4ccccc4n3C)CC2)co1 | -24.4% |
| CN1C(=O)[C@H]2CC[C@@H]1CN(Cc1cccc(OCc3ccccn3)c1)C2 | -11.5% |
| CCc1nn(C)c(Cl)c1CN1CCN(c2ccc(Cl)nn2)CC1 | 13.1% |
| Cc1ccc(-c2cc(-c3c(C)nn(CCO)c3C)c(C#N)c(N)n2)cc1 | 0.809% |
| CC(C)CN1CC2(CCN(C(=O)C3CNC(=O)N3)CC2)CC1=O (centres undefined) | -9.7% |
| CCc1ccc2nc(C)cc(C(=O)N3C[C@H]4CCC[C@@]4(CO)C3)c2c1 | -8.92% |
| O=C(NCC1CCS(=O)(=O)C1)c1ccc2cccc(Cl)c2n1 (centres undefined) | -5.5% |
| Fc1ccc(C2(c3noc(CCN4CCCCO4)n3)CCOC2)cc1 (centres undefined) | -11.7% |
| O=C1NCC(c2ccc(F)cc2)Cc2[nH]c(CCN3CCCC3)nc21 (centres undefined) | -20.9% |

| SMILES | cytotoxicity at 70.5 h |
| --- | --- |
| COCCN(Cc1nccs1)C(=O)c1cc(-c2ccc(C)o2)n[nH]1 | -11.2% |
| Cc1cc(NCc2ccc(CO)cc2)n2nc(C)cc2n1 | -0.853% |
| CCCc1cncnc1N1CCC(NCc2cc3ccccc3[nH]2)CC1 | 8.09% |
| Cc1cc(NC(C)c2csc(C)n2)n2nc(C)c(C)c2n1 (centres undefined) | 5.97% |
| CN(CC1(CO)CCCC1)[C@@H]1c2ccccc2C2(CCNCC2)[C@H]1O | -3.86% |
| CC(=O)c1c(C)nn(CC(=O)N2Cc3cnc(C(C)(C)C)nc3C2)c1C | -5.26% |
| COCCOCC(=O)N1CCC(O)(c2ccc3nc(C)ccc3c2)CC1 | -5.95% |
| CCCc1cc(C(=O)N(C)Cc2cnn(-c3cccc(OC)c3)c2)[nH]n1 | -6.08% |
| CN(Cc1cc(C2CC2)on1)C(=O)CN1C(=O)OC(C)(C)C1=O | 0.377% |
| OC[C@H]1CN(Cc2c(Cl)cccc2Cl)C[C@H]1CN1CCCCC1 | 7.58% |
| Fc1ccccc1CN1CCCC(NC2CCOCC2)C1 (centres undefined) | -9.48% |
| CCc1nc(C)sc1CN1C[C@@H](C)[C@@](C)(O)C1 | -11.2% |
| COc1ccccc1-n1cc(C(=O)NCCCn2nc(C)nc2C)cn1 | -9.68% |
| COCCN1CCCC2(CCN(c3ncc(Cl)cc3Cl)C2)C1=O (centres undefined) | -11% |
| Cc1cc(C(F)(F)F)nc(CCNc2nc(C)nc3c2cnn3C)n1 | -4.44% |
| Cc1nccn1C1(C(=O)O)CCN(Cc2ccc3nsnc3c2)CC1 | -7% |
| COc1ccc(C(C(=O)O)N2CCC(O)(c3cccnc3)CC2)cc1Cl (centres undefined) | -9.89% |
| COCCN1CC(C(=O)N(C)Cc2csc(C)n2)CC1=O (centres undefined) | 9.18% |
| CC1=CCN(C(=O)Nc2ccccc2N2CCOC2=O)CC1 | 0.848% |
| CCc1ncc(C(=O)NCCN(C)S(C)(=O)=O)cn1 | 17.2% |
| CC(C)N(C)CC(=O)N1CCCC(c2ccc(C(=O)O)cc2)C1 (centres undefined) | -5.3% |
| COc1nc2c(cc1C(=O)N1C[C@H](N)C[C@H]1C(=O)NC(C)C)CCC2 | -4.1% |

| SMILES | cytotoxicity at 70.5 h |
| --- | --- |
| O=C(c1ccc(F)c(Cl)c1)N1C[C@@H]2CC[C@H](C1)N(Cc1ccccc1)C2 | -5.41% |
| CN(CCO)Cc1nnc(C2CCN(C(=O)C(C)(C)C)CC2)n1C | -4.92% |
| COc1cccc(N2CCN(C(=O)C(O)c3cccc(Cl)c3)CC2=O)c1 (centres undefined) | 6.54% |
| Cn1ncc2c(N3CCN(C(N)=O)CC3)nc(C3CCCC3)nc21 | 16.3% |
| COc1ccc(C2CC(=O)Nc3c2nc2n3CCCC2)cc1OC (centres undefined) | 8.63% |
| CSc1cccc(CN(C)C(=O)C2CC(=O)N(CCN(C)C)C2)c1 (centres undefined) | 5.8% |
| CCCN(C)C(=O)c1ccc2c(c1)[nH]c(=O)n2CCOCC | 13.7% |
| CSCC[C@H](N)C(=O)NCc1cc2n(n1)CCCN(C(=O)C1CCC1)C2 | -4.43% |
| CC(C)(O)C1CCN(C(=O)Nc2nc(-c3ccccc3)ns2)CC1 | -4.79% |
| CC(=O)N1CCCn2nc(CNS(=O)(=O)N3CCCCCC3)cc2C1 | -10.6% |
| Fc1ccccc1-c1noc2c1CN(CC1CC1)CC2 | -3.89% |
| COc1ccc(C(C(=O)O)N2CCCN(C3CCCC3)CC2)cc1OC (centres undefined) | 18.5% |
| O=C(c1ccccn1)N1CCCC(c2nccn2Cc2ccncc2)C1 (centres undefined) | -4.69% |
| O=C(CCc1cc2n(n1)CCCN(C(=O)c1cccnc1)C2)NC1CC1 | -2.07% |
| CCn1ccnc1CN1CCC(CNC(=O)c2ccc(C)nc2)C1 (centres undefined) | -9.04% |
| O=C(c1cc(=O)[nH]c(=O)[nH]1)N1CCCCC1c1ccc(F)cc1 (centres undefined) | -6.94% |
| COc1ccccc1OCc1cc(C(=O)N2CC(O)C2)n[nH]1 | -4.48% |
| CNc1nc2c(c(C(=O)N3CCCC3)n1)CN(Cc1nccn1C)CC2 | -10.9% |
| CSCC(=O)N1C[C@H]2CC[C@@H]1CN(Cc1ccccc1)C2 | -3.17% |
| COCC1CCN(C(=O)c2cccc(S(=O)(=O)NCC3(C)COC3)c2)C1 (centres undefined) | -3.93% |
| CC(C)NS(=O)(=O)c1cc(C(=O)O)cc(-c2ccccc2CN(C)C)c1 | -1.54% |
| CC(C)c1ncc(S(C)(=O)=O)c(C2CCCNC2)n1 (centres undefined) | -7.47% |

| SMILES | cytotoxicity at 70.5 h |
| --- | --- |
| Clc1ccccc1C1(c2ccnc(-c3ncccn3)n2)CCNCC1 | -12.3% |
| CC(C(=O)N1CCCC1)N1CCC(c2nccn2Cc2cscn2)CC1 (centres undefined) | -9.41% |
| COC(=O)c1cc(OCC2CCC2)cc(C(=O)N[C@H]2CC[C@H](O)CC2)c1 | 15.3% |
| CCc1ncc2c(n1)CN(C(=O)COC)C2 | -4.18% |
| COc1cccc(CCC2CCCN(C(=O)c3n[nH]c4c3CCC4)C2)c1 (centres undefined) | 0.453% |
| CC(CN1CCCC1)C(=O)N1CCC(c2nccn2CC2CC2)CC1 (centres undefined) | 12.9% |
| Cc1ccsc1[C@@H]1CCN(C(=O)CCC(=O)N2CCCCCC2)C[C@H]1O | 0.789% |
| CC(C)n1ccnc1C1CCN(C(=O)c2ccccc2)CC1 | 20.7% |
| O=C(CCc1cc(O)no1)N1CCCC(COc2ccc(F)cc2)C1 (centres undefined) | -3.78% |
| CCCN1CCN(C(=O)c2cnccn2)[C@H]2CS(=O)(=O)C[C@H]21 | -0.654% |
| O=C(COCc1ccccc1)N1CCC(OCc2cccnc2)CC1 | -3.09% |
| Cc1cccnc1CNCC1(O)CCCN(CC2CCCCC2)C1=O (centres undefined) | -7.77% |
| CCc1cc(N[C@H]2CC[C@H](O)CC2)n2nc(C)c(C)c2n1 | -0.423% |
| Cc1ccc(OC2(C(=O)O)CCN(C(=O)c3ccc(F)cc3)CC2)cn1 | -7.2% |
| CC(C)c1ncc(CN2C[C@@H](CN3CCC(CO)CC3)[C@@H](CO)C2)cn1 | -6.31% |
| Nc1nc2c(c(=O)[nH]1)CCN(C(=O)c1cccc3nccnc13)C2 | -13.2% |
| CC(=O)c1ccc(N2CCCC(CO)(CCOc3ccccc3)C2)nc1 (centres undefined) | -13.1% |
| CC(C)c1nccn1CCCNC(=O)c1ccc(-c2cncnc2)nc1 | -9.84% |
| NC(=O)c1cccc(CC2CCN(C(=O)CCCN3CCOCC3)C2)c1 (centres undefined) | -4.93% |
| Nc1nccc(NCc2cc3n(n2)CCCN(C2CCCCC2)C3)n1 | -1.68% |
| Cc1nc(CN2CCCC(Cn3cc(CCO)nn3)C2)c[nH]1 (centres undefined) | -1.03% |
| Cc1ccccc1N1CCCN(C(=O)CCCS(N)(=O)=O)CC1 | 15.2% |

| SMILES | cytotoxicity at 70.5 h |
| --- | --- |
| Cc1nc2c(c(N3CC=CC3)n1)CCN(Cc1ccoc1)CC2 | -2.75% |
| Cc1nccn1CCC1CCCCN1Cc1ccncc1 (centres undefined) | 3.75% |
| O=C(O)c1coc(COc2cccc(F)c2)n1 | -4.11% |
| COc1ccc(F)c(CN2CCC3(CCC(=O)N(CC(N)=O)C3)CC2)c1 | 5.8% |
| CN(C)C(=O)NCc1cc2n(n1)CCN(C[C@H]1[C@@H]3CNC[C@@H]31)C2 | 15.7% |
| CC(C)n1ccnc1C1CCN(Cc2ccc(Cl)s2)CC1 | -8.66% |
| CCC(=O)N1CC[C@@H](c2ccc3ccccc3c2)[C@H](O)C1 | -10.5% |
| Cn1c(CN2CCOCC2)nnc1C1CCN(C(=O)C2CCCC2)CC1 | 2.41% |
| CCc1cnc(C)nc1NCCN1CCCCCC1 | -11.6% |
| Cc1ncccc1OCC(=O)N1CCN[C@H]2CS(=O)(=O)C[C@H]21 | -11.5% |
| CC(=O)N1CCN(c2cc(-c3ccccc3)nc3c(C)c(C)nn23)CC1 | 0.357% |
| CC1CCN(S(=O)(=O)NCC2CCOc3ccccc3C2)CC1 (centres undefined) | -7.61% |
| CC(C)C1CN(c2ncccn2)CCC(=O)N1Cc1ccc(F)cc1 (centres undefined) | 1.56% |
| CC(=O)Nc1cccc(C(=O)Nc2cnc3n2CCCC3)c1 | -5.75% |
| COc1ccccc1CN(C)c1nccc(-c2cn(C)nc2C)n1 | -8.86% |
| O=C1CC2(CCN(CC3CCOC3)CC2)CN1Cc1cc(F)cc(F)c1 (centres undefined) | -6.96% |
| CC[C@@]1(O)CCN(C(=O)c2ccc(SC)cc2)C[C@H]1O | 0.602% |
| Cc1cccc2[nH]c(C3CCN(C(=O)c4ccnn4C)CC3)nc12 | 0.0948% |
| Cc1cc(=O)[nH]c(NCCNC(=O)C(c2ccc(F)cc2)N(C)C)n1 (centres undefined) | 11.9% |
| CCC[C@@H]1CN(S(=O)(=O)c2ccc(C)c(F)c2)C[C@H]1N(C)C | 0.773% |
| CCCOCCCNc1nccc(-c2cn(C)nc2C)n1 | -4.32% |
